Test results reported in PubChem BioAssay (NCI).
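Values below derive from 48-hour exposures of cells grown in 96-well plates, with endpoints linearly interpolated between the two concentrations bracketing the appropriate inhibition level. TGI: total growth inhibition.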

Key:
Experiment in all cases: inhibition of tumour cell growth, NCI panel, 48 h
CCRF-CEM leukemia = test system: CCRF-CEM leukemia
DMS 273 small cell lung = test system: DMS 273 small cell lung
HCT-116 colon = test system: HCT-116 colon
HCT-15 colon = test system: HCT-15 colon
LOX IMVI melanoma = test system: LOX IMVI melanoma
MOLT-4 leukemia = test system: MOLT-4 leukemia
NCI-H460 lung = test system: NCI-H460 lung
NCI-H522 lung = test system: NCI-H522 lung
OVCAR-4 ovarian = test system: OVCAR-4 ovarian
SF-295 CNS = test system: SF-295 CNS
SK-OV-3 ovarian = test system: SK-OV-3 ovarian
SN12C renal = test system: SN12C renal
SR leukemia = test system: SR leukemia
UACC-257 melanoma = test system: UACC-257 melanoma
UO-31 renal = test system: UO-31 renal
M14 melanoma = test system: M14 melanoma

| SMILES | TGI (CCRF-CEM leukemia) | TGI (DMS 273 small cell lung) | TGI (HCT-116 colon) | TGI (HCT-15 colon) | TGI (LOX IMVI melanoma) | TGI (MOLT-4 leukemia) | TGI (NCI-H460 lung) | TGI (NCI-H522 lung) | TGI (OVCAR-4 ovarian) | TGI (SF-295 CNS) | TGI (SK-OV-3 ovarian) | TGI (SN12C renal) | TGI (SR leukemia) | TGI (UACC-257 melanoma) | TGI (UO-31 renal) | TGI (M14 melanoma) |
| --- | --- | --- | --- | --- | --- | --- | --- | --- | --- | --- | --- | --- | --- | --- | --- | --- |
| Cc1c2n(c(=O)[nH]c1=O)C1OC(CO)C(O2)C1O (stereo not given) | > 100 µM | > 100 µM | > 100 µM | > 100 µM | > 100 µM | > 100 µM | > 100 µM | > 100 µM | > 100 µM | > 100 µM | > 100 µM | > 100 µM | > 100 µM | > 100 µM | > 100 µM | – |
| [N-]=[N+]=NC1(Cc2ccccc2)C(=O)c2cccc3c2N(CCC3)C1=O (stereo not given) | > 100 µM | > 100 µM | > 100 µM | > 100 µM | > 100 µM | > 100 µM | > 100 µM | > 100 µM | > 100 µM | > 100 µM | > 100 µM | > 100 µM | > 100 µM | > 100 µM | > 100 µM | > 100 µM |
| O=[N+]([O-])c1cccc(C2=NN(c3ccccc3)C[N+](c3ccc(Br)cc3)=N2)c1 | – | > 100 µM | > 100 µM | > 100 µM | – | > 100 µM | > 100 µM | > 100 µM | > 100 µM | > 100 µM | > 100 µM | > 100 µM | 16.9 µM | > 100 µM | > 100 µM | > 100 µM |
